System: gene expression in D04 melanoma cells
Assay: RNA-Seq differential expression analysis (DESeq2)
Assay type: cell-based, human
Settings: up-regulated list
Procedure: Total RNA was isolated using the RNeasy mini Kit (QIAGEN) following the manufacturer's protocol. Quality check for extracted RNA was done using 2100 Bioanalyzer (Agilent Technologies, USA) or Tapestation System (Agilent Technologies, USA). […] For samples used for identification of MAPK-responsive lncRNAs, paired-end, 101-bp sequencing was performed by Centrillion Genomic Services (Centrillion Biosciences, USA) on an Illumina HiSeq 2000. For DE gene analysis of ASO-transfected D04 samples, paired-end, 2×150-bp sequencing was performed by Genewiz (USA) on a Illumina HiSeq.
Sequence reads were aligned to the human genome (hg19) using TopHat (Version 2.0.11).
Differential expression (DE) analysis was done using DESeq2. Differentially expressed genes were defined by more than 1.5-fold changes (log 2 >0.58 or <−0.58) in expression with FDR<0.05. GO term analysis was done using DAVID Functional Annotation Clustering analysis.
To examine the biomolecular changes upon TRASH-inhibition in melanoma, D04 cells were treated with TRASH-ASOs (SEQ ID NO:15) and Control-ASOs and RNA was extracted and used for RNA-Seq. […] These GO terms consisted of genes encoding growth factors, tyrosine kinases, G protein coupled receptor subunits, and collagen subunits. Scatter plot diagram showing differential gene expression after TRASH-ASO treatment compared to Control-ASO treatment. (cut-off for significance was adjusted p-value <0.05). Data was obtained from RNA-Seq of D04 melanoma cells, treatment period was three days. (FIG. 5c)

Sequence: GACTGGAGATAATTAA (gapmer, pattern not given here) [SEQ ID NO: 15, GapmeR ASO targeting AC004540.4 (TRASH), exon region of both isoforms; used for in vitro experiments]
- log2FoldChange BBC3 (ENSG00000105327): 0.619
- log2FoldChange CD33 (ENSG00000105383): 0.929
- log2FoldChange PLA2G4C (ENSG00000105499): 0.608
- log2FoldChange HBP1 (ENSG00000105856): 0.6116
- log2FoldChange ATP6V0A4 (ENSG00000105929): 0.8207
- log2FoldChange CPED1 (ENSG00000106034): 0.7035
- log2FoldChange SERPINE1 (ENSG00000106366): 0.6383
- log2FoldChange ABI3 (ENSG00000108798): 0.9913
- log2FoldChange SLC16A6 (ENSG00000108932): 0.91
- log2FoldChange LPXN (ENSG00000110031): 0.7633
- log2FoldChange ATG2A (ENSG00000110046): 0.5858
- log2FoldChange CHKA (ENSG00000110721): 0.7402
- log2FoldChange RASAL1 (ENSG00000111344): 0.896
- log2FoldChange RBM24 (ENSG00000112183): 0.8237
- log2FoldChange TREML2 (ENSG00000112195): 1.205
- log2FoldChange WWC1 (ENSG00000113645): 0.6261
- log2FoldChange STC2 (ENSG00000113739): 0.7339
- log2FoldChange TNNC1 (ENSG00000114854): 1.043
- log2FoldChange IL1A (ENSG00000115008): 0.7632
- log2FoldChange ACTL8 (ENSG00000117148): 1.133
- log2FoldChange TSPAN1 (ENSG00000117472): 0.7518
- log2FoldChange IRF6 (ENSG00000117595): 0.7078
- log2FoldChange DIEXF (ENSG00000117597): 0.6611
- log2FoldChange MUC5B (ENSG00000117983): 0.599
- log2FoldChange NR4A3 (ENSG00000119508): 1.046
- log2FoldChange GPR75 (ENSG00000119737): 0.8604
- log2FoldChange AVPI1 (ENSG00000119986): 0.7469
- log2FoldChange DUSP1 (ENSG00000120129): 1.094
- log2FoldChange FABP3 (ENSG00000121769): 0.9724
- log2FoldChange CCRL2 (ENSG00000121797): 1.162
- log2FoldChange PAEP (ENSG00000122133): 0.8405
- log2FoldChange PLAU (ENSG00000122861): 1.118
- log2FoldChange SLC25A16 (ENSG00000122912): 0.8143
- log2FoldChange KCNK15 (ENSG00000124249): 1.203
- log2FoldChange PAIP2B (ENSG00000124374): 1.015
- log2FoldChange MT1G (ENSG00000125144): 1.136
- log2FoldChange MT2A (ENSG00000125148): 0.8492
- log2FoldChange BMP4 (ENSG00000125378): 0.657
- log2FoldChange IL1B (ENSG00000125538): 1.059
- log2FoldChange PSD4 (ENSG00000125637): 0.7899
- log2FoldChange ARMCX1 (ENSG00000126947): 0.5964
- log2FoldChange BEST3 (ENSG00000127325): 1.14
- log2FoldChange KLF2 (ENSG00000127528): 0.7602
- log2FoldChange AKAP9 (ENSG00000127914): 0.609
- log2FoldChange KRT17 (ENSG00000128422): 1.116
- log2FoldChange VGF (ENSG00000128564): 0.9691
- log2FoldChange CSRP3 (ENSG00000129170): 1.122
- log2FoldChange AJUBA (ENSG00000129474): 0.6241
- log2FoldChange CDH15 (ENSG00000129910): 0.8921
- log2FoldChange SYT5 (ENSG00000129990): 1.139
- log2FoldChange UNC13A (ENSG00000130477): 1.071
- log2FoldChange ULBP3 (ENSG00000131019): 0.6552
- log2FoldChange ZBED3 (ENSG00000132846): 0.778
- log2FoldChange BEX2 (ENSG00000133134): 0.7157
- log2FoldChange BEX1 (ENSG00000133169): 0.6316
- log2FoldChange BTG1 (ENSG00000133639): 0.69
- log2FoldChange DYDC2 (ENSG00000133665): 0.987
- log2FoldChange TRPM1 (ENSG00000134160): 1.155
- log2FoldChange PTPN22 (ENSG00000134242): 1.051
- log2FoldChange FST (ENSG00000134363): 0.8947
- log2FoldChange SLC37A2 (ENSG00000134955): 0.7294
- log2FoldChange NT5E (ENSG00000135318): 0.6889
- log2FoldChange RDH5 (ENSG00000135437): 0.8676
- log2FoldChange PKIB (ENSG00000135549): 0.7917
- log2FoldChange DYSF (ENSG00000135636): 0.9396
- log2FoldChange LCP1 (ENSG00000136167): 1.021
- log2FoldChange IL6 (ENSG00000136244): 0.8209
- log2FoldChange MYC (ENSG00000136997): 0.6121
- log2FoldChange RNF144B (ENSG00000137393): 1.04
- log2FoldChange ARHGAP29 (ENSG00000137962): 0.6178
- log2FoldChange AOX1 (ENSG00000138356): 1.099
- log2FoldChange FGF5 (ENSG00000138675): 0.9785
- log2FoldChange ANXA3 (ENSG00000138772): 0.8166
- log2FoldChange SLC46A3 (ENSG00000139508): 0.6816
- log2FoldChange CYP11A1 (ENSG00000140459): 0.9698
- log2FoldChange RHCG (ENSG00000140519): 1.166
- log2FoldChange ITGAX (ENSG00000140678): 0.7501
- log2FoldChange MAP1LC3B (ENSG00000140941): 0.7968
- log2FoldChange NPC1 (ENSG00000141458): 0.6586
- log2FoldChange SLC14A1 (ENSG00000141469): 1.217
- log2FoldChange NECTIN4 (ENSG00000143217): 1.206
- log2FoldChange ABL2 (ENSG00000143322): 0.8447
- log2FoldChange RORC (ENSG00000143365): 0.8825
- log2FoldChange TUFT1 (ENSG00000143367): 0.8984
- log2FoldChange DYRK3 (ENSG00000143479): 0.5876
- log2FoldChange DUSP10 (ENSG00000143507): 0.6264
- log2FoldChange SLC20A1 (ENSG00000144136): 0.585
